Here are results for four compounds from patent US7947706B2, “Substituted pyrrolopyridines, compositions containing them, manufacturing process therefor and use thereof” (Sanofi-Aventis Deutschland GmbH, priority 2005, dated 2011).

Structures are written as SMILES.

The target in one data set is T1, FAK (Homo sapiens, UniProt Q05397).
T1 construct: The whole cDNA of human FAK; made in house; host or cells: baculovirus expression (pFastBac HTc)
Put plainly: FAK autophosphorylation inhibition, time-resolved fluorescence test (HTRF). Format: biochemical. The following applies: autophosphorylation of His-tagged human FAK, 15 μM ATP, 1 hour at 37° C. As for the experimental part: The inhibitory activity of the compounds on FAK is determined by measuring the inhibition of autophosphorylation of the enzyme using a time-resolved fluorescence test (HTRF).
The whole cDNA of human FAK, the N-terminal end of which has been labelled with histidine, was cloned in a pFastBac HTc baculovirus expression vector. The protein was expressed and purified to about 70% homogeneity.
The kinase activity is determined by incubating the enzyme (6.6 μg/ml) with different concentrations of test compound in a 50 mM Hepes pH=7.2, 10 mM MgCl2, 100 μm Na3VO4, 15 μM ATP buffer for 1 hour at 37° C. The enzymatic reaction is stopped by adding Hepes pH=7.0 buffer containing 0.4 mM KF, 133 mM EDTA, 0.1% BSA and the labelling is performed, for 1 to 2 hours at room temperature, by adding to this buffer an anti-Histidine antibody labelled with XL665 and a tyrosine phosphospecific monoclonal antibody conjugated to europium cryptate (Eu—K). The characteristics of the two fluorophores are available in G. Mathis et al., Anticancer Research, 1997, 17, pages 3011-3014. The energy transfer from the excited europium cryptate to the acceptor XL665 is proportional to the degree of autophosphorylation of FAK. The long-lasting signal specific for XL-665 is measured in a Packard Discovery plate counter. All the tests are performed in duplicate and the average of the two tests is calculated. The inhibition of the autophosphorylation activity of FAK with compounds of the invention is expressed as a percentage of inhibition relative to a control whose activity is measured in the absence of test compound. To calculate the percentage inhibition, the ratio [signal at 665 nm/signal at 620 nm] is considered.
Background: In TR-FRET formats the signal depends on donor and acceptor labels being close together.

A further data set addresses T2, TIE2 (Homo sapiens, UniProt Q02763).
T2 construct: amino acids of the intracellular domain 776-1124; made in house; host or cells: baculovirus expression (pFastBacGT)
Description: Tie2 phosphorylation of PLC test (GST-Tie2, FlashPlate). Format: biochemical. To be noted: GST-Tie2 intracellular domain 776-1124, GST-PLC substrate, 33P-ATP, one hour at 37° C.; read-out: IC 50 TIE2. As for the experimental part: The coding sequence of human Tie2 corresponding to the amino acids of the intracellular domain 776-1124 was generated by PCR using the cDNA isolated from a human placenta as a model. This sequence was introduced into a pFastBacGT baculovirus expression vector in the form of a GST fusion protein.
The inhibitory effect of the molecules is determined in a test of phosphorylation of PLC with Tie2 in the presence of GST-Tie2 purified to about 80% homogeneity. The substrate is composed of the SH2-SH3 fragments of PLC expressed in the form of a GST fusion protein.
The kinase activity of Tie2 is measured in a MOPS 20 mM pH 7.2 buffer, containing 10 mM MgCl2, 10 mM MnCl2, 1 mM DTT, 10 mM of glycerophosphate. In a 96-well FlashPlate plate maintained on ice, a reaction mixture is deposited, composed of 70 μL of kinase buffer containing 100 ng of enzyme GST-Tie2 per well. Next, 10 μL of the test molecule diluted in DMSO to a maximum concentration of 10% are added. For a given concentration, each measurement is performed four times. The reaction is initiated by adding 20 μl of solution containing 2 μg of GST-PLC, 2 μm of cold ATP and 1 μCi of ^33P[ATP]. After incubation for one hour at 37° C., the reaction is stopped by adding 1 volume (100 μl) of 200 mM EDTA. After removal of the incubation buffer, the wells are washed three times with 300 μL of PBS. The radioactivity is measured on a MicroBeta 1450 Wallac.
The inhibition of the Tie2 activity is calculated and expressed as a percentage of inhibition relative to the control activity determined in the absence of compound.

The target in another data set is T3, Aurora B (Homo sapiens, UniProt Q96GD4).
T3 construct: His (N); made in house
Put plainly: Aurora1 (Aurora-B/INCENP-C3 complex) enzymatic test, NuMA substrate phosphorylation, radioactivity detection. It counts as biochemical. To be noted: 10 nM Aurora1 (Aurora-B/INCENP-C3), 500 nM NuMA, 1 μM ATP, 30 minutes, 37° C.; read-out: IC 50 Aurora B. As for the experimental part:
The inhibitory effect of compounds with respect to the kinases Aurora1 and Aurora2 is determined by means of an enzymatic test using radioactivity detection.
The kinase activity of Aurora1 and Aurora2 is evaluated via the phosphorylation of the substrate Numa-histidine in the presence of radiolabelled ATP ([^33P]ATP) using 96-well Flashplate plates in which the nickel chelate is bound to the surface of the microplate. The amount of ^33P phosphate incorporated into the NuMA substrate is proportional to the activity of the enzyme Aurora1 or Aurora2.
Aurora1: Aurora-B/INCENP-C3 recombinant complex, purified to about 50%, the N-terminal end of Aurora-B of which has been labelled with histidine.
NuMA (nuclear protein that combines with the mitotic apparatus): 424-amino acid fragment, expressed in E. coli, the N-terminal end of which has been labelled with histidine, and used as substrate for the two Aurora enzymes.
The microplates used are 96-well Flash-Plate plates, nickel chelate (Perkin-Elmer, model SMP107).
The products to be evaluated are incubated in a reaction volume of 100 μL per well, in the presence of 10 nM of Aurora1 or Aurora2, 500 nM of NuMA substrate in a buffer composed of 50 mM Tris/HCl (pH 7.5), 50 mM NaCl, 5 mM MgCl2 (Aurora-B) or 10 mM MgCl2 (Aurora-A) and 1 mM DTT, at 37° C.
80 μL of enzyme/substrate incubation buffer are distributed in each well, followed by 10 μL of product to be evaluated, at variable concentrations. The reaction is initiated by adding 1 μM final of ATP containing 0.2 μCi of [^33P]ATP (10 μL). After incubating for 30 minutes, the reaction is quenched by simple removal of the reaction buffer and each well is washed twice with 300 μl of Tris/HCl buffer. The radioactivity is then measured in each well using a Packard, Top-Count model scintillation machine.
The control enzymatic activity of Aurora is expressed by the number of counts per minute obtained over 30 minutes after subtracting the background noise (reaction mixture containing no enzyme). The evaluation of the various test products is expressed as a percentage of inhibition of the Aurora activity relative to the control.

As usually defined, the melting point is the temperature of the solid-liquid transition.

T3 sequence (Q96GD4 whole entry): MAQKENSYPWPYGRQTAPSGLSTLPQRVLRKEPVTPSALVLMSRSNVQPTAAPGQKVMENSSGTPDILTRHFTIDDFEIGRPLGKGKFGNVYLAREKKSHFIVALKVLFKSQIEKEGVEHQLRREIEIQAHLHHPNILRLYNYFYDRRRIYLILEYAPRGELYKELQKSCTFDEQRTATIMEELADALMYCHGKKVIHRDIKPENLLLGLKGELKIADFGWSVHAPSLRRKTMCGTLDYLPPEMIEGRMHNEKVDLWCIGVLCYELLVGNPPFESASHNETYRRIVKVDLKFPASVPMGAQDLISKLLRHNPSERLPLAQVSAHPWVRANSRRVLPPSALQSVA
T3 sequence (Q9NQS7 826-900 partner limits assumed): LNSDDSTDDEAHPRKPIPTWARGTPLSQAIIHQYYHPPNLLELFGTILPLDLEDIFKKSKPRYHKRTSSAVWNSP
T1 sequence (Q05397 whole entry): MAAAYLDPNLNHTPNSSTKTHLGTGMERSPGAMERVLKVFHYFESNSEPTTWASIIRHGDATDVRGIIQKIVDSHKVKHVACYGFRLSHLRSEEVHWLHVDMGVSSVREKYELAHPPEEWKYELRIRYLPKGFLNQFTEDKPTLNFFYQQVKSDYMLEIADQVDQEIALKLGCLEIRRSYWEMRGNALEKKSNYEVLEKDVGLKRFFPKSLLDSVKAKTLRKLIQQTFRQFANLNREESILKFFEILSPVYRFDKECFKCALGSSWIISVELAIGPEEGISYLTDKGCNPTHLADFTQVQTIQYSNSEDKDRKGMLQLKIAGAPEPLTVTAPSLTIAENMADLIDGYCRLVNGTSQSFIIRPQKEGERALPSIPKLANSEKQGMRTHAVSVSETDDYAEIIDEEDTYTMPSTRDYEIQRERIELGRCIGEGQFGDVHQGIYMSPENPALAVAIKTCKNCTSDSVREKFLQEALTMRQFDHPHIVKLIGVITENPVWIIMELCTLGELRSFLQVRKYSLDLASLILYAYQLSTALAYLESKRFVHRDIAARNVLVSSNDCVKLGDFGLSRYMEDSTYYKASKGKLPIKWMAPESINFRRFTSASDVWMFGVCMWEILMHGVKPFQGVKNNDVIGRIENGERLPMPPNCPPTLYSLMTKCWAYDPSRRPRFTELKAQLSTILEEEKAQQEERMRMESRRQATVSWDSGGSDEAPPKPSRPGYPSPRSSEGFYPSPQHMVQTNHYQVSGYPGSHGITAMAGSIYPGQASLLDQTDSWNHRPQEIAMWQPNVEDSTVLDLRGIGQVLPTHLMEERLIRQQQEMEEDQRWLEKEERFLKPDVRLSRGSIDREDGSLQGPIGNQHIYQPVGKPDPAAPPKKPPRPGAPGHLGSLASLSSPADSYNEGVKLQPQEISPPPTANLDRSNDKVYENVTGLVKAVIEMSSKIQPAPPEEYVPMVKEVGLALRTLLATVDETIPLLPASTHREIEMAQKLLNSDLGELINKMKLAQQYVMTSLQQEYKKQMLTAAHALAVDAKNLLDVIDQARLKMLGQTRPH
T2 sequence (Q02763 776-1124): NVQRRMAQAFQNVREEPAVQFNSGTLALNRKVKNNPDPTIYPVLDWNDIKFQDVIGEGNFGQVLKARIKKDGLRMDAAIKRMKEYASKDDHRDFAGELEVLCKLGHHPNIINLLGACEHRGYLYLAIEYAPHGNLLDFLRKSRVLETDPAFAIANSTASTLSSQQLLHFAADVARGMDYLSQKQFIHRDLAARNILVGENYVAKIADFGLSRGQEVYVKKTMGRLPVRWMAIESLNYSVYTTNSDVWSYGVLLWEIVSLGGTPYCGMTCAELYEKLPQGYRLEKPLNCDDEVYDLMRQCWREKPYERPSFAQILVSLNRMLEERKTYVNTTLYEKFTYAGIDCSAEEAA

`NC(=O)c1[nH]c2cnccc2c1-c1ccc(NC(=O)Nc2cc(C(F)(F)F)ccc2F)cc1` [Example 1, 3-{4-[3-(2-Fluoro-5-trifluoromethylphenyl)ureido]phenyl}-1H-pyrrolo[2,3-c]pyridine-2-carboxamide] came in with a melting point of 286 °C. Also, the IC50 against FAK worked out at 164 nM. Moreover, the IC50 at TIE2 is 4 nM. Also, the IC50 at Aurora B was 138 nM.

As to `COc1ccc(C)cc1NC(=O)Nc1ccc(-c2c(C(N)=O)[nH]c3cnccc23)cc1` [Example 2, 3-{4-[3-(2-Methoxy-5-methylphenyl)ureido]phenyl}-1H-pyrrolo[2,3-c]pyridine-2-carboxamide], the melting point is 227 °C. This compound also gave an IC50 against FAK of 299 nM. The IC50 at TIE2 was determined as 21 nM. Besides, the IC50 on Aurora B is 196 nM.

`Cc1ccc(F)c(NC(=O)Nc2ccc(-c3c(C(N)=O)[nH]c4cnccc34)cc2)c1.O=C(O)C(F)(F)F` [Example 5, 3-{4-[3-(2-Fluoro-5-methylphenyl)ureido]phenyl}-1H-pyrrolo[2,3-c]pyridine-2-carboxamide trifluoroacetate] displayed a melting point of 222 °C. The same compound showed an IC50 against FAK of 249 nM. Moreover, at TIE2, the IC50 amounted to 47 nM. The IC50 at Aurora B was 67 nM.

`NC(=O)c1[nH]c2ncccc2c1-c1ccc(NC(=O)Nc2cc(C(F)(F)F)ccc2F)cc1` [Example 7, 3-{4-[3-(2-Fluoro-5-trifluoromethylphenyl)ureido]phenyl}-1H-pyrrolo[2,3-b]pyridine-2-carboxamide] returned a melting point of 232 °C. Besides, on FAK, the IC50 is 184 nM. Moreover, at TIE2, the IC50 amounted to 9 nM. The IC50 on Aurora B was 133 nM.
